Assays:
[1] = tested on: HOP-92 lung cancer cell lines; assay: Cell survival, colorimetric MTT assay, HOP-92; assay type: cell-based, human; conditions: 72 hours; for reduced the survival of HOP92 cell lines by: 100 μM
Experimental: 1) Against the lung cancer cell lines: The effect of the racemic mixture of 8-HHA and that of the individual enantiomers, namely S and R enantiomers, were examined on the survival of HOP-92 lung cancer cell lines. The cell viability was examined in the exponential growth phase with 100 μM of 8-HHA for 72 hours using colorimetric MTT assay. In separate assays, HOP-92 cells were treated with different concentrations of the S-enantiomer of 8-HHA ranging from 20-100 μM for 72 hours.

[2] = tested on: PLC/PRF/5 liver cancer cell line; assay: Cell survival, colorimetric MTT assay, PLC/PRF/5; assay type: cell-based; conditions: 72 hours
Experimental: (§1) 2) Against the liver cancer cell lines: The effect of the racemic mixture of 8-HHA and that of the individual enantiomers, namely S and R enantiomers, were examined on survival of PLC/PRF/5 (also referred to as “PLC-5” or “PLC5”), Hep3B and SNU449 (also referred to as “SNU”) liver cancer cell lines. The cell viability was examined in the exponential growth phase with 100 μM of 8-HHA for 72 hours using colorimetric MTT assay. In separate assays, PLC-5 cells were treated with different concentrations of S-enantiomer of 8-HHA ranging from 20-100 μM for 72 hours.

FAS receptor [3] = assay: FAS protein levels in HOP-92 cells; assay type: cell-based, human; conditions: HOP92 cells, 100 μM, 72 hours
Experimental: (§2) PARP cleavage is considered a specific and well established marker of apoptosis. During apoptosis, FAS receptor undergoes down regulation, which is considered as an established indicator of apoptosis. Apoptosis can be induced by a pathway stimulated by FAS receptor binding to FAS ligand and is called extrinsic mechanism. Apoptosis by this pathway results in the reduction of FAS receptor.
2) Against lung cancer cell lines: HOP-92 lung cancer cell lines were treated with 100 μM of (S)-8-HHA for 72 hours.

FAS receptor [4] = assay: FAS receptor levels in PLC-5 cells; assay type: cell-based; conditions: 100 μM, 72 hours
Experimental: as §2
PLC-5 cell lines were treated with […] 100 μM for 72 hours.

[5] = tested on: SNU449 liver cancer cell line; assay: Cell survival, colorimetric MTT assay, SNU449; assay type: cell-based; conditions: 100 μM, 72 hours
Experimental: as §1

PARP [6] = assay: PARP cleavage in SNU liver cancer cells; assay type: cell-based; conditions: 100 μM
Description: as §2
(§3) 1) Against liver cancer cell lines: The effect of 8-HHA was examined on apoptosis in liver cancer cell lines.

Bim1 = assay: Pro-apoptotic Bim1 in HOP92 cells; assay type: cell-based, human; conditions: 100 μM, 72 hours
Experimental: Bim1 is a pro-apoptotic protein whose up regulation leads to apoptosis. HOP92 cell lines were treated with 100 μM of S-enantiomer of 8-HHA for 72 hours.

[7] = tested on: Hep3B liver cancer cell line; assay: Cell survival, colorimetric MTT assay, Hep3B; assay type: cell-based; conditions: 100 μM, 72 hours
Experimental: as §1

PARP [8] = assay: PARP cleavage in PLC-5 liver cancer cells; assay type: cell-based; conditions: PLC-5 cells, 100 μM
Description: as §2, §3

HeLa cells = assay: HeLa cell viability by Alamar Blue assay; assay type: cell-based; conditions: 24, 48 and 72 hrs
Description: Assessment of cell viability by alamar blue reduction method is routinely used for illustrating cytotoxic potential of candidate drugs. Alamar blue detects cell viability by utilizing a blue non-fluorescent dye resazurin, which is converted to a pink fluorescent dye, resorufin by cellular metabolic intermediates. The fluorescent signal generated from the assay is proportional to the number of living cells in the sample. Confluent HeLa cells (70-80%) grown in T-75 flasks were detached using trypsin-EDTA. Following centrifugation, the cells pellet was resuspended in DMEM medium and counted using a hemocytometer. Cells were seeded into 96 well plate at a density of 10,000 cells/100 μl/well and incubated at 37° C./5% CO2 for 8 hrs. Media was removed and test compounds were added in the volume of 100 μl. […] At the end of 24, 48 & 72 hrs treatment with test compound, fluorescence was measured at 530 excitation and 590 nm emissions using a micro plate reader. Viability expressed as % control was plotted against drug concentration.
The mean value of duplicate wells was calculated. […] The percentage of cell viability of test samples was calculated as:
[formula] IC50 values were determined by nonlinear regression analysis (curve fit) of percent viability data against drug concentration using the sigmoidal dose-response (variable) equation (Graph Pad Prism 4 software).

Structure (SMILES)	reduced the survival of HOP92 cell lines by [1] [%]	reduced the survival of PLC-5 cell line by ([2]; 100 μM) [%]	IC50 ([2]; Homo sapiens, PLC-5, 20-100 μM, read-out: 50% reduction in cell survival (IC50)) [µM]	FAS protein levels (FAS receptor [3])	IC50 ([1]; Homo sapiens, HOP-92, 20-100 μM, read-out: 50% reduction in cell survival (IC50)) [µM]	FAS receptor levels compared to the control (FAS receptor [4])	effect on survival of SNU cell line [5] [%]	PARP cleavage (PARP [6])	Bim1 increase compared to the control sample (Bim1) [fold]	reduced the survival of Hep3B cell line by [7] [%]	PARP cleavage (PARP [8])	HeLa cell viability, result in words (HeLa cells)
CCCCCCCC[C@@H](O)CCCCCCC(=O)O [(R)-8-HHA, 8(R)-hydroxypalmitic acid]	13	–	–	–	–	–	–	–	–	–	–	–
CCCCCCCC[C@H](O)CCCCCCC(=O)O [(S)-8-HHA, 8(S)-hydroxypalmitic acid]	72	~75	~50	reduction of FAS protein levels	~90	substantial reduction in FAS receptor levels	~75	resulted in the PARP cleavage	2	~75	resulted in the PARP cleavage	–
CC(C)(C)c1ccc(C(O)CCCN2CCC(C(O)(c3ccccc3)c3ccccc3)CC2)cc1 (stereo not shown) [Terfenadine]	–	–	–	–	–	–	–	–	–	–	–	dose dependent inhibition
